In ChEMBL document CHEMBL5380817, “Discovery of LL-K8-22: A Selective, Durable, and Small-Molecule Degrader of the CDK8-Cyclin C Complex” (J Med Chem, 2023):
Calls of active or inactive are those of the source. The calls are words filed in the database; no cut-off is given here.

Key:
[1] = molecular target: T1, CDK8/Cyclin C (Homo sapiens) (UniProt P49336+P24863); assay: Hydrophobic-tagging degradation activity at CDK8/Cyclin C (unknown origin) assessed as protein degradation at 0.625 to 10 uM incubated for 48 hrs by Western blotting analysis; type: protein-complex assay; settings: dose 0.625-10 µM
Cyclin-C = Cyclin-C (Homo sapiens, UniProt P24863); assay: PROTAC activity at Cyclin C in human MDA-MB-468 cells assessed as degradation of Cyclin C incubated for 48 hrs by Western blotting analysis; type: cell-based
Cyclin-C, sequence (P24863 whole entry): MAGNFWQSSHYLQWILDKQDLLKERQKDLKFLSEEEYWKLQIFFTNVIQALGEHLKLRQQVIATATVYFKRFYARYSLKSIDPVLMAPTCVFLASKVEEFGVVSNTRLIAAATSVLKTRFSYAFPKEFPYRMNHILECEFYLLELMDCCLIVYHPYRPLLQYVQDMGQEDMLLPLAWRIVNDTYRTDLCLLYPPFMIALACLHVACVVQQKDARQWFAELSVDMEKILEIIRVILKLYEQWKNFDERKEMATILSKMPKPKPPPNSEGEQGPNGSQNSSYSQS

[2] = molecular target: T1, CDK8/Cyclin C (Homo sapiens); assay: Hydrophobic-tagging degradation activity at CDK8/Cyclin C in human MDA-MB-231 cells assessed as protein degradation at 1.5 to 30 uM incubated for 48 hrs by Western blotting analysis; type: cell-based; settings: dose 1.5-30 µM
[3] = molecular target: Cyclin-dependent kinase 2 (Homo sapiens) (UniProt P24941); assay: PROTAC activity at CDK2 in human MDA-MB-468 cells assessed as degradation of CDK2 at 0.625 to 10 uM incubated for 24 hrs by Western blotting analysis; type: cell-based; settings: dose 0.625-10 µM
[4] = molecular target: Cyclin-dependent kinase 9 (Homo sapiens) (UniProt P50750); assay: Hydrophobic-tagging degradation activity at CDK9 in human MDA-MB-468 cells assessed as degradation of CDK9 at 0.625 to 10 uM incubated for 24 hrs by Western blotting analysis; type: cell-based; settings: dose 0.625-10 µM
Cyclin-dependent kinase 9 (Homo sapiens), sequence (P50750 whole entry): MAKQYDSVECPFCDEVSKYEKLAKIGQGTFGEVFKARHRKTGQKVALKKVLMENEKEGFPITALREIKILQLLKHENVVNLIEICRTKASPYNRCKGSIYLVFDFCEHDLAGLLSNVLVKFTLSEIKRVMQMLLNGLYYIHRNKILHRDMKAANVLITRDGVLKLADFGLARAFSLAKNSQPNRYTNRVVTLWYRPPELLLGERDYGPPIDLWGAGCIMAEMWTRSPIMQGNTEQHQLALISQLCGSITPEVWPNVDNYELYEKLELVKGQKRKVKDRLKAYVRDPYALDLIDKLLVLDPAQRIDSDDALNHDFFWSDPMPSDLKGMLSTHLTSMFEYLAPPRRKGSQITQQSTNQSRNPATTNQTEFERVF

[5] = molecular target: Cyclin-dependent kinase 12 (Homo sapiens) (UniProt Q9NYV4); assay: PROTAC activity at CDK12 in human MDA-MB-468 cells assessed as degradation of CDK12 at 0.625 to 10 uM incubated for 24 hrs by Western blotting analysis; type: cell-based; settings: dose 0.625-10 µM
Cyclin-dependent kinase 12 (Homo sapiens), sequence (Q9NYV4 whole entry, looked up): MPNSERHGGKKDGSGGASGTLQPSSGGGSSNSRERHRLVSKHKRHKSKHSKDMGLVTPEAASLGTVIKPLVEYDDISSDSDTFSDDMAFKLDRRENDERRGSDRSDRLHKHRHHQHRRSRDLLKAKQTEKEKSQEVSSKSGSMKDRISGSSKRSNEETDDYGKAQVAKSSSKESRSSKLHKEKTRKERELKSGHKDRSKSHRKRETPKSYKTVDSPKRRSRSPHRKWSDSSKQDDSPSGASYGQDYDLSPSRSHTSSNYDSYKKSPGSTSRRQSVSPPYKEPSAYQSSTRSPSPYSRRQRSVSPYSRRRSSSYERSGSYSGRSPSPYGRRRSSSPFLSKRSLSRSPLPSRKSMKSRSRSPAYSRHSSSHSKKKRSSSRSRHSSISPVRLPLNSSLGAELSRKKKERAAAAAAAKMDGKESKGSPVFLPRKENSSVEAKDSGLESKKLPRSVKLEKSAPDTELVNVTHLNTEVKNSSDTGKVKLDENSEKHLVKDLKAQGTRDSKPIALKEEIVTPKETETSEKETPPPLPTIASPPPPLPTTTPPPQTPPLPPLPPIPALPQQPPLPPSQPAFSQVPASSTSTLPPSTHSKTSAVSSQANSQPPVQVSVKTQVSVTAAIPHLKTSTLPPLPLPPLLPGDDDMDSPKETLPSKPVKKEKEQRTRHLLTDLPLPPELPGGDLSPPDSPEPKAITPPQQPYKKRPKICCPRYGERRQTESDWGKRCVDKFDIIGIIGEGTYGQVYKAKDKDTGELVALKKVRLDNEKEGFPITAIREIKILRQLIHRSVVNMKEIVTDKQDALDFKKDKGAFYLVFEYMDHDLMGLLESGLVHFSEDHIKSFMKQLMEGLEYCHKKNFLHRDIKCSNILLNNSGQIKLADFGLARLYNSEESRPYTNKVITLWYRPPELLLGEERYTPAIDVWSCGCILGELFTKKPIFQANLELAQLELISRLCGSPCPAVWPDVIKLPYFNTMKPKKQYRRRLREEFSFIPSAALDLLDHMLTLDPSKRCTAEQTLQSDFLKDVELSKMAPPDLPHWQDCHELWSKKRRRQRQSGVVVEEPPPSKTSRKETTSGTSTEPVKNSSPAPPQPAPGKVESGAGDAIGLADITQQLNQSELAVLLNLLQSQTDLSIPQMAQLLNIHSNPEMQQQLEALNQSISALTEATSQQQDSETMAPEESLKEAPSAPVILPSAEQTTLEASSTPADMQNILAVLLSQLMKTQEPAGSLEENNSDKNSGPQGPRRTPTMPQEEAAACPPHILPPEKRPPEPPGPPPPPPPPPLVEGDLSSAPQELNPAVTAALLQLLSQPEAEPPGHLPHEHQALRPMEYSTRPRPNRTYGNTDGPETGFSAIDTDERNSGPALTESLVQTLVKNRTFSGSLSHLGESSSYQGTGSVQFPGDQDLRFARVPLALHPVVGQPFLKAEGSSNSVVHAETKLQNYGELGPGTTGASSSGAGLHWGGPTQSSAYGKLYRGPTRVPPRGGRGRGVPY

[6] = molecular target: Cyclin-dependent kinase 1 (Homo sapiens) (UniProt P06493); assay: Hydrophobic-tagging degradation activity at CDK1 in human MDA-MB-468 cells assessed as degradation of CDK1 at 10 uM incubated for 24 hrs by Western blotting analysis; type: cell-based
Cyclin-dependent kinase 1 (Homo sapiens), sequence (P06493 whole entry, looked up): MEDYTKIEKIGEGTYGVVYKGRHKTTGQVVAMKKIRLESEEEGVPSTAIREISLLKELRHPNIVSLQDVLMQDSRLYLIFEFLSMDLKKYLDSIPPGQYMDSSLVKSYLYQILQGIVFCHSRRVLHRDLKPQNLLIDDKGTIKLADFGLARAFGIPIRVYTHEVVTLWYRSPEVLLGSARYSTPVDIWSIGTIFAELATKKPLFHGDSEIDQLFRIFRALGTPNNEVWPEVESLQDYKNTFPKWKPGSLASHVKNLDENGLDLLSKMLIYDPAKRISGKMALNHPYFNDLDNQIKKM

[7] = molecular target: G2/mitotic-specific cyclin-B1 (Homo sapiens) (UniProt P14635); assay: PROTAC activity at Cyclin B1 in human MDA-MB-468 cells assessed as degradation of Cyclin B1 at 0.625 to 10 uM incubated for 24 hrs by Western blotting analysis; type: cell-based; settings: dose 0.625-10 µM
G2/mitotic-specific cyclin-B1 (Homo sapiens), sequence (P14635 whole entry): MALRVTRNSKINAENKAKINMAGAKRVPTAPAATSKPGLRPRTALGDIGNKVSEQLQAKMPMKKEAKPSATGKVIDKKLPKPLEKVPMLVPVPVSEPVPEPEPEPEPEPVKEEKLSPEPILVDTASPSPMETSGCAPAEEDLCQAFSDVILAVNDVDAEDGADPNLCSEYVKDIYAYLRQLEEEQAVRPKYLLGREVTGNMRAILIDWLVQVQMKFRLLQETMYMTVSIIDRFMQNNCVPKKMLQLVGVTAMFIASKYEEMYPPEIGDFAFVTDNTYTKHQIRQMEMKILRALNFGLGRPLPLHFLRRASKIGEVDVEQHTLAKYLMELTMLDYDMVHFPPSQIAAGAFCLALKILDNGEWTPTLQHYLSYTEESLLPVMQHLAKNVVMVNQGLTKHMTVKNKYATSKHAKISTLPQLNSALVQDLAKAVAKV

Cyclin-H (Homo sapiens) = Cyclin-H (Homo sapiens) (UniProt P51946); assay: PROTAC activity at Cyclin H in human MDA-MB-468 cells assessed as degradation of Cyclin H at 0.625 to 10 uM incubated for 24 hrs by Western blotting analysis; type: cell-based; settings: dose 0.625-10 µM
Cyclin-H (Homo sapiens), sequence (P51946 whole entry): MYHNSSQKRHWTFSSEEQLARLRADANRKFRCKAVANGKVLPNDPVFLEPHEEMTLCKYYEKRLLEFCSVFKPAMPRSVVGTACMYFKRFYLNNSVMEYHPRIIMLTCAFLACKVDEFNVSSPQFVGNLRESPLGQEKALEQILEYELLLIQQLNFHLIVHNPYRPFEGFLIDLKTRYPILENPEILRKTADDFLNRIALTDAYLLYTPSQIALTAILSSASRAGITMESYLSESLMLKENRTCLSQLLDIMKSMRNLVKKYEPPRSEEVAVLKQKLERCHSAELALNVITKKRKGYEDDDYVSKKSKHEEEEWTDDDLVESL

Cyclin-K (Homo sapiens) = Cyclin-K (Homo sapiens) (UniProt O75909); assay: PROTAC activity at Cyclin K in human MDA-MB-468 cells assessed as degradation of Cyclin K at 0.625 to 10 uM incubated for 24 hrs by Western blotting analysis; type: cell-based; settings: dose 0.625-10 µM
Cyclin-K (Homo sapiens), sequence (O75909 whole entry): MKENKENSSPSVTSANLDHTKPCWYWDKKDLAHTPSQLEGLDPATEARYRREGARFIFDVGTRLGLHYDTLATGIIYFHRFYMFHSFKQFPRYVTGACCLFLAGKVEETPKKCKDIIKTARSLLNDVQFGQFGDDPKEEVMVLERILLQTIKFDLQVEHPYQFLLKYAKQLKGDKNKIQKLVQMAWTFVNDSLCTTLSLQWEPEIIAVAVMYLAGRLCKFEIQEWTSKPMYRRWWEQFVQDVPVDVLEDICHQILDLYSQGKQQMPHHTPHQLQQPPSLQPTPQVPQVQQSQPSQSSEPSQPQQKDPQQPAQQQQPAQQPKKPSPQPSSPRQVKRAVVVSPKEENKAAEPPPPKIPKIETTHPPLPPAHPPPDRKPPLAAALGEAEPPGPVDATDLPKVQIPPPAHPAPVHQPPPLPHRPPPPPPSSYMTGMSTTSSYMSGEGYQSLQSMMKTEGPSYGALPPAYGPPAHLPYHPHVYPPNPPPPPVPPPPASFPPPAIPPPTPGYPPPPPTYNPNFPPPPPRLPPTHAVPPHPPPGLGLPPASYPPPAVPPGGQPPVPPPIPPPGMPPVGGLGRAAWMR

Cyclin-T1 (Homo sapiens) = Cyclin-T1 (Homo sapiens) (UniProt O60563); assay: PROTAC activity at Cyclin T1 in human MDA-MB-468 cells assessed as degradation of Cyclin T1 at 0.625 to 10 uM incubated for 24 hrs by Western blotting analysis; type: cell-based; settings: dose 0.625-10 µM
Cyclin-T1 (Homo sapiens), sequence (O60563 whole entry): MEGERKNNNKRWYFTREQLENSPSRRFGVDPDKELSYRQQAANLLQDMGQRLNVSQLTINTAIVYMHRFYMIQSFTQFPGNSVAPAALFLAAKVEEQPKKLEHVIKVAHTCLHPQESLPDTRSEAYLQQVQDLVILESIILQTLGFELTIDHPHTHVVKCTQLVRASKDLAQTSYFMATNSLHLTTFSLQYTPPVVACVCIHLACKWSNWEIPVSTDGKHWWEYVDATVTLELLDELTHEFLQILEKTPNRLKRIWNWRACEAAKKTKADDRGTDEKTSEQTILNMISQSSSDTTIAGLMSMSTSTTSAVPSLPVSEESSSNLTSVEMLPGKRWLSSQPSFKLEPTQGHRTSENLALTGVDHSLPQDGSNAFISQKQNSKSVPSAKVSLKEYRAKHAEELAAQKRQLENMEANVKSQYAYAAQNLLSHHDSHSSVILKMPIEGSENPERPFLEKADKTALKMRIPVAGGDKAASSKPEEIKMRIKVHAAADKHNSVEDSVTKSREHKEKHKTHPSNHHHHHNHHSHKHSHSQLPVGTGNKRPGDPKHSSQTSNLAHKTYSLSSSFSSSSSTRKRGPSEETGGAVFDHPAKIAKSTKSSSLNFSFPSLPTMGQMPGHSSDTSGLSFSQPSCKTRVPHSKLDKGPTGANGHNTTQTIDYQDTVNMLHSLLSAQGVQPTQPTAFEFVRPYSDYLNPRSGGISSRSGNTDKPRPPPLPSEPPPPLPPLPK

[8] = molecular target: T2, Cyclin-dependent kinase 8 (Homo sapiens, UniProt P49336); assay: Hydrophobic-tagging degradation activity at CDK8 in human MDA-MB-468 cells assessed as degradation of CDK8 protein at 5 uM incubated for 12 hrs by DIA-based proteomic analysis; type: cell-based
T2 sequence (P49336 whole entry): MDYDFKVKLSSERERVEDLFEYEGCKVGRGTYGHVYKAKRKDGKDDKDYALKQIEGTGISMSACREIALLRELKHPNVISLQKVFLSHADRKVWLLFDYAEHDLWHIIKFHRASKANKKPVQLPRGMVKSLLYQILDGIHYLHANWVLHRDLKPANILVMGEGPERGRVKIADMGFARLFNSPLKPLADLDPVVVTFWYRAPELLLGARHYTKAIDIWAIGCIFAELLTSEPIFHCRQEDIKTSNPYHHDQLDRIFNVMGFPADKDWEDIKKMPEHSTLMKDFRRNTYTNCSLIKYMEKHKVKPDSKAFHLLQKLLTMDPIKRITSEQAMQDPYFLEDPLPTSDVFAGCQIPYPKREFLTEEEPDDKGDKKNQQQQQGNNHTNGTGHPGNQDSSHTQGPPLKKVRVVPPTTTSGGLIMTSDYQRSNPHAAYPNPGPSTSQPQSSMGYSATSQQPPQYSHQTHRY

[9] = molecular target: T1, CDK8/Cyclin C (Homo sapiens); assay: Hydrophobic-tagging degradation activity at CDK8/Cyclin C in human MDA-MB-468 cells assessed as protein degradation at 10 uM incubated for 2 to 20 hrs in presence of cycloheximide by Western blotting analysis; type: cell-based; settings: time 2-20 hrs, TDE = time-dependent effect
[10] = molecular target: T1, CDK8/Cyclin C (Homo sapiens); assay: Hydrophobic-tagging degradation activity at CDK8/Cyclin C in human MDA-MB-468 cells assessed as protein degradation at 1.1 to 10 uM incubated for 24 hrs in presence of MG132 by Western blotting analysis; type: cell-based; settings: dose 1.1-10 µM
[11] = molecular target: T1, CDK8/Cyclin C (Homo sapiens); assay: Hydrophobic-tagging degradation activity at CDK8/Cyclin C in human MDA-MB-468 cells assessed as protein degradation at 3 uM incubated for 24 hrs in presence of 17-AAG by Western blotting analysis; type: cell-based
[12] = molecular target: T1, CDK8/Cyclin C (Homo sapiens); assay: Hydrophobic-tagging degradation activity at CDK8/Cyclin C in human MDA-MB-468 cells assessed as effect on mRNA expression level at 1.1 to 10 uM by […] analysis; type: cell-based; settings: dose 1.1-10 µM
MDA-MB-468 [13] = assay: Antiproliferative activity against human MDA-MB-468 cells assessed as reduction in cell viability incubated for 4 days by Celltiter glo luminescent assay; type: functional, cell-based; settings: time 4.0 day
MDA-MB-231 = assay: Antiproliferative activity against human MDA-MB-231 cells assessed as reduction in cell viability incubated for 4 days by Celltiter glo luminescent assay; type: functional, cell-based; settings: time 4.0 day
HCT-116 = assay: Antiproliferative activity against human HCT-116 cells assessed as reduction in cell viability incubated for 4 days by Celltiter glo luminescent assay; type: functional, cell-based; settings: time 4.0 day
MDA-MB-468 [14] = assay: Antiproliferative activity against human MDA-MB-468 cells assessed as reduction in cell growth at 5 to 20 uM measured upto 5 days by Celltiter glo luminescent assay; type: functional, cell-based; settings: dose 5-20 µM, time <= 5.0 day
MDA-MB-468 [15] = assay: Inhibition of colony formation in human MDA-MB-468 cells assessed as reduction in cell colony size at 1.25 to 20 uM incubated for 3 days by crystal violet staining based assay; type: functional; settings: dose 1.25-20 µM, time 3.0 day
[16] = molecular target: T1, CDK8/Cyclin C (Homo sapiens); assay: Hydrophobic-tagging degradation activity at CDK8/Cyclin C in human MDA-MB-468 cells assessed as downregulation of C-terminal RNA polymerase II phosphorylation at serine 5 at 2 to 8 uM incubated for 24 hrs by Western blotting analysis; type: cell-based; settings: dose 2-8 µM
[17] = molecular target: T1, CDK8/Cyclin C (Homo sapiens); assay: Hydrophobic-tagging degradation activity at CDK8/Cyclin C in human MDA-MB-468 cells assessed as downregulation of Rb phosphorylation at 2 to 8 uM incubated for 24 hrs by Western blotting analysis; type: cell-based; settings: dose 2-8 µM
[18] = molecular target: T1, CDK8/Cyclin C (Homo sapiens); assay: Hydrophobic-tagging degradation activity at CDK8/Cyclin C in human MDA-MB-468 cells assessed as downregulation of STAT1 phosphorylation at Ser727 residue at 4 uM incubated for 24 hrs by Western blotting analysis; type: cell-based
[19] = molecular target: T1, CDK8/Cyclin C (Homo sapiens); assay: Hydrophobic-tagging degradation activity at CDK8/Cyclin C in human MDA-MB-468 cells assessed as downregulation of STAT1 phosphorylation at Ser727 residue at 4 uM incubated for 24 hrs followed by compound washout and measured after 24 hrs by Western blotting analysis; type: cell-based
[20] = molecular target: T1, CDK8/Cyclin C (Homo sapiens); assay: Hydrophobic-tagging degradation activity at CDK8/Cyclin C in human MDA-MB-468 cells assessed as downregulation of MYC gene expression level at 4 uM incubated for 24 hrs by qPT-PCR analysis; type: cell-based
[21] = molecular target: T1, CDK8/Cyclin C (Homo sapiens); assay: Hydrophobic-tagging degradation activity at CDK8/Cyclin C in human MDA-MB-468 cells assessed as downregulation of TERT gene expression level at 4 uM incubated for 24 hrs by qPT-PCR analysis; type: cell-based
[22] = molecular target: T2, Cyclin-dependent kinase 8; assay: Hydrophobic-tagging degradation activity at CDK8 in human MDA-MB-468 cells assessed as downregulation of RAP2C protein expression at 5 uM incubated for 12 hrs by DIA-based proteomic analysis; type: cell-based

Activity [1]: Active | DC50 (Cyclin-C): 2640 nM | Activity [2]: Active | Activity [3]: inactive | Activity [4]: inactive | Activity [5]: inactive | Activity [6]: Active | Activity [7]: inactive | Activity (Cyclin-H (Homo sapiens)): inactive | Activity (Cyclin-K (Homo sapiens)): inactive | Activity (Cyclin-T1 (Homo sapiens)): inactive | Activity [8]: Active | Activity [9]: Tde | Activity [10]: inactive | Activity [11]: Active | Activity [12]: inactive | Activity [16]: Dose-Dependent Effect | Activity [17]: Active | Activity [18]: Active | inhibition [19]: 70% | Activity [20]: Active | Activity [21]: Active | Activity [22]: Active
Structure (SMILES): O=C(Cn1cc(-c2ccc(-c3cncc4ccccc34)cc2)cn1)N1CCN(CCCC23CC4CC(CC(C4)C2)C3)CC1
Activity (MDA-MB-468 [13]): Active | Activity (MDA-MB-231): Active | Activity (HCT-116): Active | Activity (MDA-MB-468 [14]): Active | inhibition (MDA-MB-468 [15]): Active
